Results taken from patent US11998606B2, “Compounds and methods for selective proteolysis of glucocorticoid receptors” (Board of Regents, The University of Texas System, priority 2018, dated 2024).
“And” between values parts separate entries of the source, which are not always exact repeats. Identical values can stand only once. Like-named read-outs stand apart in the source and are kept apart here.

Experiments:
PC3 cells = test: PC3 cell line clonogenic (colony formation) assay; format: cell-based; conditions: 3.3 μM or 10 μM, 10-14 days, versus DMSO control
Procedure: PC3 cells are routinely maintained in RPMI 1640 media. Cell growth is determined using crystal violet staining. Cells are initially seeded at density of 1000 to 2000 cells per well in 6-well plates. 24 hours post-seeding, cells are treated with DMSO control, enzalutamide, RU-486 or various GR degraders at 3.3 μM or 10 μM concentration. Cells are allowed to grow under regular growth conditions for 10-14 days. Cells are then fixed with 80% MeOH and stained with crystal violet solution (0.05%) overnight. Plates are then washed in water, dried and scanned.

[1] = test system: TRAMP-C1 prostate cancer cells; test: In vivo anti-tumor efficacy, TRAMP-C1 tumors in immunocompetent mice; set-up: species or system male C57/Bl6 mice; conditions: C57/Bl6 mice, Example 3 100 mg/kg + anti-PD1 antibody 200 μg IP once daily, 7 days
Procedure: TRAMP-C1 cells (5×10^6) were injected into the flanks of male C57/Bl6 mice. Tumor take was monitored visually and by palpation bi-weekly. Once tumors reached 200 mm^3 mice were randomized into control and different treatment groups for 7 days. Treatment cohorts are as follows: • a. Vehicle is 5% Cremophor: 5% Ethanol in saline, (n=10 animals) • b. GR degrader Example #3 (100 mg/kg) IP once daily in 5% Cremophor: 5% Ethanol in saline (n=10 animals) • c. Anti-PD1 antibody, clone RMP1-14 (200 μg) IP once daily in 5% Cremophor: 5% Ethanol in saline (n=10 animals) • d. GR degrader Example #3 (100 mg/kg)+Anti-PD1 antibody (200 μg) IP once daily in 5% Cremophor: 5% Ethanol in saline (n=10 animals)
Tumor diameter and volume were calculated based on caliper measurements of tumor length and […] using the formula tumor volume=(length×width^2)/2. Tumor volume and body weight were measured three times.

DU145 cells = test: DU145 cell line proliferation assay (Incucyte confluency); format: cell-based; conditions: 1 μM, 3.3 μM or 10 μM, 5 days, versus DMSO control
Procedure: DU145 cells are routinely maintained in RPMI 1640 media. Proliferation is determined using a real time cell imaging device, Incucyte. Cells are initially seeded at density of 2000 cells per well in 96-well plates. 24 hours post-seeding, cells are treated with DMSO control or GR degraders at 1 μM, 3.3 μM or 10 μM concentration. Cells are allowed to grow under regular growth conditions for 5 days while being monitored and imaged every four hours by Incucyte. Confluency of cells, a surrogate for proliferation, is calculated and plotted.

[2] = Single dose intraperitoneal pharmacokinetics in CD-1 mice, plasma concentration by HPLC-MS; format: in vivo; conditions: 10 mg/kg IP
[3] = test system: VCaP prostate cancer cells; test: In vivo anti-tumor efficacy, VCaP castration resistant prostate cancer xenograft model; set-up: species or system Male CB17 SCID Mice; conditions: castrated CB17 SCID mice, Example 3 100 mg/kg + enzalutamide 10 mg/kg IP once daily
Procedure: 1×10^7 VCaP cells were injected into the flanks of male CB17 SCID Mice. Tumor take was monitored visually and by palpation bi-weekly. Once tumors reached 200 mm^3 mice were castrated. Once tumors stopped shrinking, mice were randomized into control and different treatment groups for 26 days. Treatment cohorts are as follows: • a. Vehicle is 5% Cremophor: 5% Ethanol in saline, (n=10 animals) • b. GR degrader example #3 (100 mg/kg) IP once daily in 5% Cremophor: 5% Ethanol in saline (n=10 animals) • c. Enzalutamide (10 mg/kg) IP once daily in 5% Cremophor: 5% Ethanol in saline (n=10 animals) • d. GR degrader example #3 (100 mg/kg)+Enzalutamide (10 mg/kg) IP once daily in 5% Cremophor: 5% Ethanol in saline (n=10 animals)
Tumor diameter and volume were calculated based on caliper measurements of tumor length and […] using the formula tumor volume=(length×width^2)/2. Tumor volume and body weight were measured three times a week.

[4] = Single dose intraperitoneal pharmacokinetics in CD-1 mice, plasma concentration by HPLC-MS; format: in vivo
Procedure: The intraperitoneal bioavailability was determined in the following study: three CD-1 female mice were dosed by intraperitoneal injection (10 mg/kg) and plasma collected at the following hourly time points (0.083, 0.25, 0.5, 1, 2, […] and 24h). Plasma concentration was determined by HPLC-MS.
Table 1 illustrates pharmacokinetic properties of the Example 3 compound in CD-1 mice (n=3) after a single intraperitoneal dose of 10 mg/kg.

[5] = female, mouse, ip, CD-1 mice (n=3), single intraperitoneal dose of 10 mg/kg

## CC#C[C@]1(O)CC[C@H]2[C@@H]3CCC4=CC(=O)CCC4=C3[C@@H](c3ccc(N(C)CCCC(=O)N4CCN(C(=O)OC(C)(C)C)CC4C(=O)N4CCN(C(=O)OC(C)(C)C)CC4C(=O)NCCCOCCOCCOCCCNc4cccc5c4C(=O)N(C4CCC(=O)NC4=O)C5=O)cc3)C[C@@]21C (stereo partly drawn) [Example 3, tert-Butyl-4-(4-(tert-butoxycarbonyl)-1-(4-((4-((8S,11R,13S,14S,17S)-17-hydroxy-13-methyl-3-oxo-17-(prop-1-yn-1-yl)-2,3,6,7,8,11,12,13,14,15,16,17-dodecahydro-1H-cyclopenta[a]phenanthren-11-yl)phenyl)(methyl)amino)butanoyl)piperazine-2-carbonyl)-3-((3-(2-(2-(3-((2-(2,6-dioxopiperidin-3-yl)-1,3-dioxoisoindolin-4-yl)amino)-propoxy)ethoxy)ethoxy)propyl)carbamoyl)piperazine-1-carboxylate]
PC3 cells
  Colony formation (crystal violet staining): inhibited colony formation
[1]
  Tumor growth, combination with anti-PD1 antibody: synergizes with anti-PD1 antibody to inhibit growth of prostate cancer
DU145 cells
  Proliferation (confluency): displays efficacy against DU145 cancer cells
[2]; 4 hr, individual animals, read-out: Individual concentration
  concentration at 8 h: 3220 nM and 3210 nM
[2]; 8 hr, individual animals, read-out: Individual concentration
  concentration at 8 h: 2980 nM and 2610 nM
[2]; female, CD-1, mouse, ip, 10 mg/kg, 8 hr, individual animals, read-out: Individual concentration
  concentration at 8 h: 2900 nM
[2]; female, CD-1, mouse, ip, 10 mg/kg, 8 hr, n=3, read-out: Mean concentration
  concentration at 8 h: 2830 nM
[3]
  Xenograft tumor growth, combination with enzalutamide: synergizes with enzalutamide to inhibit growth of prostate cancer
[4]; 0.083 hr, 10 mg/kg IP, CD-1 mice, individual animals, 10 mg/kg, read-out: Individual concentration
  concentration at 0.5 h: 72.2 nM and 135 nM
[4]; 0.25 hr, 10 mg/kg IP, CD-1 mice, individual animals, 10 mg/kg, read-out: Individual concentration
  concentration at 0.5 h: 283 nM and 93 nM and 173 nM
[4]; 0.5 hr, 10 mg/kg IP, CD-1 mice, individual animals, 10 mg/kg, read-out: Individual concentration
  concentration at 0.5 h: 652 nM and 939 nM
[4]; 1 hr, 10 mg/kg IP, CD-1 mice, individual animals, 10 mg/kg, read-out: Individual concentration
  concentration at 0.5 h: 1010 nM and 147 nM and 358 nM
[4]; 2 hr, 10 mg/kg IP, CD-1 mice, individual animals, 10 mg/kg, read-out: Individual concentration
  concentration at 0.5 h: 1480 nM and 2870 nM
[4]; 24 hr, 10 mg/kg IP, CD-1 mice, individual animals, 10 mg/kg, read-out: Individual concentration
  concentration at 0.5 h: 505 nM and 617 nM
[4]; female, CD-1, mouse, ip, 10 mg/kg, 0.083 hr, 10 mg/kg IP, CD-1 mice, individual animals, read-out: Individual concentration
  concentration at 0.083 h: 114 nM
[4]; female, CD-1, mouse, ip, 10 mg/kg, 0.083 hr, 10 mg/kg IP, CD-1 mice, n=3, read-out: Mean concentration
  concentration at 0.083 h: 107 nM
[4]; female, CD-1, mouse, ip, 10 mg/kg, 0.25 hr, 10 mg/kg IP, CD-1 mice, n=3
  concentration at 0.25 h: 183 nM
[4]; female, CD-1, mouse, ip, 10 mg/kg, 0.5 hr, 10 mg/kg IP, CD-1 mice, individual animals, read-out: Individual concentration
  concentration at 0.5 h: 727 nM
[4]; female, CD-1, mouse, ip, 10 mg/kg, 0.5 hr, 10 mg/kg IP, CD-1 mice, n=3, read-out: Mean concentration
  concentration at 0.5 h: 773 nM
[4]; female, CD-1, mouse, ip, 10 mg/kg, 1 hr, 10 mg/kg IP, CD-1 mice, n=3
  concentration at 1 h: 505 nM
[4]; female, CD-1, mouse, ip, 10 mg/kg, 2 hr, 10 mg/kg IP, CD-1 mice, individual animals, read-out: Individual concentration
  concentration at 2 h: 2240 nM
[4]; female, CD-1, mouse, ip, 10 mg/kg, 2 hr, 10 mg/kg IP, CD-1 mice, n=3, read-out: Mean concentration
  concentration at 2 h: 2200 nM
[4]; female, CD-1, mouse, ip, 10 mg/kg, 10 mg/kg IP, CD-1 mice, individual animals, read-out: Individual concentration
  concentration at 4 h: 3300 nM
[4]; female, CD-1, mouse, ip, 10 mg/kg, 10 mg/kg IP, CD-1 mice, n=3, read-out: Mean concentration
  concentration at 4 h: 3240 nM
[4]; female, CD-1, mouse, ip, 10 mg/kg, 24 hr, 10 mg/kg IP, CD-1 mice, individual animals, read-out: Individual concentration
  concentration at 24 h: 440 nM
[4]; female, CD-1, mouse, ip, 10 mg/kg, 24 hr, 10 mg/kg IP, CD-1 mice, n=3, read-out: Mean concentration
  concentration at 24 h: 521 nM
[4]; [5]
  AUC(0-t): 46.2 µM·h
  Cmax: 3240 nM
  Tmax: 4 h

## CNC(=O)c1ccc(N2C(=S)N(c3ccc(C#N)c(C(F)(F)F)c3)C(=O)C2(C)C)cc1F [enzalutamide, reference compound]
PC3 cells
  Colony formation (crystal violet staining): did not differ significantly from control
DU145 cells
  Proliferation (confluency): did not differ significantly from control
